In US20100227897A1, “Composition for Controlling Colorado Potato Beetles” (FMC CORPORATION, priority 2006, published 2010):

System: Colorado potato beetles (Leptinotarsa decemlineata Say)
Assay: Field test of foliar sprays on potato plots: efficacy on Colorado potato beetles, number of larvae alive
Type: in vivo
Conditions: for Number Larvae Alive 3 DAT: 3 days after treatment; for Number Larvae Alive 3 DAT / Number Larvae Alive 7 DAT / Number Larvae Alive 14 DAT / Number Larvae Alive 21 DAT / Number Larvae Alive 28 DAT: foliar spray; for Number Larvae Alive 7 DAT: 7 days after treatment; for Number Larvae Alive 14 DAT: 14 days after treatment; for Number Larvae Alive 21 DAT: 21 days after treatment; for Number Larvae Alive 28 DAT: 28 days after treatment; for Number Larvae Alive 0 Days: before treatment (0 days, baseline)
Method: The compositions of the present invention were tested for Colorado Potato Beetle activity in the following manner:
Test compositions made up of Fury 10 EW, Mospilan 20 SP and Regent 200 SC were prepared that provided appropriate rates of application of combinations of zeta-cypermethrin, acetamiprid and fipronil, as well as zeta-cypermethrin, acetamiprid and fipronil alone.
The test was set up as a randomized complete block with 3 replicates. Each test plot was 24 meters square containing 3 rows of 50 plants. All test materials were applied as a foliar spray in 300 liters per hectare of water using a PILMET 212 sprayer at 0.35 Mpa. Observations were made before treatment (0 days), 3 days after treatment (DAT), 7 DAT, 14 DAT, 21 DAT and 28 DAT. For each observation 50 plants were inspected. For each observation the number of larvae reported was the total on the 10 most infested plants. Results reported are an average of three replicates.

Compound: CC1(C)C(C=C(Cl)Cl)C1C(=O)OC(C#N)c1cccc(Oc2ccccc2)c1 [A, (R,S)-α-cyano-3-phenoxybenzyl-(1R,S)-cis-trans-3-(2,2-dichlorovinyl)-2,2-dimethylcyclopropanecarboxylate]
- Number Larvae Alive 3 DAT (A 200 ml per hectare): 10
- Number Larvae Alive 7 DAT (A 200 ml per hectare): 18
- Number Larvae Alive 14 DAT (A 200 ml per hectare): 15
- Number Larvae Alive 21 DAT (A 200 ml per hectare): 43
- Number Larvae Alive 28 DAT (A 200 ml per hectare): 20
- Number Larvae Alive 0 Days (A 200 ml per hectare, total on 10 most infested plants, average of 3 replicates): 303

Compound: C/C(=N\C#N)N(C)Cc1ccc(Cl)nc1 [B, (E)-N^1-[(6-chloro-3-pyridyl)methyl]-N^2-cyano-N^1-methylacetamidine]
- Number Larvae Alive 3 DAT (B 100 g per hectare): 8
- Number Larvae Alive 7 DAT (B 100 g per hectare): 22
- Number Larvae Alive 14 DAT (B 100 g per hectare): 18
- Number Larvae Alive 21 DAT (B 100 g per hectare): 38
- Number Larvae Alive 28 DAT (B 100 g per hectare): 47
- Number Larvae Alive 0 Days (B 100 g per hectare): 362

Compound: N#Cc1nn(-c2c(Cl)cc(C(F)(F)F)cc2Cl)c(N)c1[S+]([O-])C(F)(F)F (stereo not drawn) [C, 5-amino-1-(2,6-dichloro-α,α,α-trifluoro-p-tolyl)-4-trifluoromethylsulfinylpyrazole-3-carbonitrile]
- Number Larvae Alive 3 DAT (C 100 ml per hectare): 2
- Number Larvae Alive 7 DAT (C 100 ml per hectare): 0
- Number Larvae Alive 14 DAT (C 100 ml per hectare): 0
- Number Larvae Alive 21 DAT (C 100 ml per hectare): 22
- Number Larvae Alive 28 DAT (C 100 ml per hectare): 17
- Number Larvae Alive 0 Days (C 100 ml per hectare): 359
